Measurements from patent US20220362232A1, “TOPICAL COMPOSITIONS COMPRISING A MACROLIDE IMMUNOSUPPRESSANT” (BAUSCH HEALTH IRELAND LIMITED, priority 2020, published 2022).

Key:
[1] = cited from earlier work
[2] = Solubility and stability in alkyl diesters of aliphatic dicarboxylic acids; assay type: physicochemical

Structure (SMILES) | Solubility in benzyl alcohol, chloroform, acetone, and acetonitrile [1] | Solubility in water [1] | Solubility and stability in alkyl diesters of aliphatic dicarboxylic acids [2] | Solubility in methanol and ethanol ([1]; methanol and ethanol)
C=CC[C@@H]1/C=C(\C)C[C@H](C)C[C@H](OC)[C@H]2O[C@@](O)(C(=O)C(=O)N3CCCC[C@H]3C(=O)O[C@H](/C(C)=C/[C@@H]3CC[C@@H](O)[C@H](OC)C3)[C@H](C)[C@@H](O)CC1=O)[C@H](C)C[C@@H]2OC [Tacrolimus] | soluble | insoluble | particularly soluble and stable | 
CC[C@@H]1/C=C(\C)C[C@H](C)C[C@H](OC)[C@H]2O[C@@](O)(C(=O)C(=O)N3CCCC[C@H]3C(=O)O[C@H](/C(C)=C/[C@@H]3CC[C@H](Cl)[C@H](OC)C3)[C@H](C)[C@@H](O)CC1=O)[C@H](C)C[C@@H]2OC [Pimecrolimus] |  | insoluble | particularly soluble and stable | soluble
CO[C@H]1C[C@@H]2CC[C@@H](C)[C@@](O)(O2)C(=O)C(=O)N2CCCC[C@H]2C(=O)O[C@H]([C@H](C)C[C@@H]2CC[C@@H](O)[C@H](OC)C2)CC(=O)[C@H](C)/C=C(\C)[C@@H](O)[C@@H](OC)C(=O)[C@H](C)C[C@H](C)/C=C/C=C/C=C/1C [Sirolimus] | soluble | insoluble | particularly soluble and stable | 
